Source: US6780994B2, “Phthalimido arylpiperazines useful in the treatment of benign prostatic hyperplasia” (Ortho-McNeil Pharmaceutical, Inc., priority 1998, dated 2004)
pIC50: −log10 of the molar value.

Legend:
rat prostatic tissue = experiment: norepinephrine-induced contractile response of rat prostatic tissue strips; format: cell-based; details: norepinephrine-induced contraction, Long Evans rat prostatic strips, 1 gram tension, 32° C.; read-out: IC50 of inhibition of contractile response in prostate tissue
Excerpt: (§1) The contractile responses of rat prostatic tissue and rat aorta tissues were examined in the presence and absence of antagonist compounds. As an indication of the selectivity of antagonism, test compound effects on vascular smooth muscle contractility (α1b-AR and α1d-AR) were compared to the effects on prostatic smooth muscle (α1a-AR). Strips of prostatic tissue and aortic rings were obtained from Long Evans derived male rats weighing 275 grams and sacrificed by cervical dislocation. The prostate tissue was placed under 1 gram tension in a 10 ml bath containing phosphate buffered saline pH 7.4 at 32° C. and isometric tension was measured with force transducers. The aortic tissue was placed under 2 grams tension in a 10 ml bath containing phosphate buffered saline pH 7.4 at 37° C.

α1b-AR = molecular target: T1, α1b-AR (Homo sapiens, UniProt P35368); experiment: radioligand ([125I]-HEAT) receptor binding assay, COS cell membranes expressing cloned receptor; details: [125I]-HEAT 50 pM, 1 hour room temperature
T1 construct: expressed in transfected cells; host or cells: COS cells, pcDNA3 vector, transient DEAE-dextran transfection
T1 sequence (P35368 1-520): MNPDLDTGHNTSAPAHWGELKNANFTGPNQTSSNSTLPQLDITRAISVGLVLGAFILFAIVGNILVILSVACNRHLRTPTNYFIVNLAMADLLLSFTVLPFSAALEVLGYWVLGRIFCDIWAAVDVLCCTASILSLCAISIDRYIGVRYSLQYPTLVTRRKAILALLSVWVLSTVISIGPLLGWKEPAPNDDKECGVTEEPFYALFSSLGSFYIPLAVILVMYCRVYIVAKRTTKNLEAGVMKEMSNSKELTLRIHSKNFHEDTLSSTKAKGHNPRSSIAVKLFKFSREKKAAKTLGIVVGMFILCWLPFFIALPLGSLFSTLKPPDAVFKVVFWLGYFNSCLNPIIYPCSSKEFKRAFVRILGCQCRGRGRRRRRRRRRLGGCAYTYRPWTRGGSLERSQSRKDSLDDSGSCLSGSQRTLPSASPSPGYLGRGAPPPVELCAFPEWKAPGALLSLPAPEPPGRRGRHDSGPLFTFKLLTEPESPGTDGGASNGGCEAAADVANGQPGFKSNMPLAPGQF
Excerpt: (§2) The first assay tested the ability of compounds of Formula I to bind to membrane bound receptors α1a-AR, α1b-AR and α1d-AR.
(§3) The DNA sequences of the three cloned human α1-AR subtypes have been published. […] We used published DNA sequence information to design primers for use in RT-PCR amplification of each subtype to obtain cloned cDNAs. Human poly A+ RNA was obtained from commercially available sources and included hippocampus and prostate samples, sources which have been cited in the literature. For the primary screen a radioligand binding assay was used which employed membrane preparations from cells expressing the individual cloned receptor cDNAs. Radiolabeled ligands with binding activity on all three subtypes (non-selective) are commercially available ([125I]-HEAT, [3H]-prazosin). Each α1 receptor subtype was cloned from poly A+ RNA by the standard method of reverse transcription-polymerase chain reaction (RT-PCR). The following sources of polyA+ RNA were used for the cloning of the α1 receptor subtypes: α1a-AR, human hippocampus and prostate, α1b-AR, human hippocampus, α1d-AR, human hippocampus. The resulting cDNAs were cloned into the pcDNA3 mammalian expression vector (Invitrogen Corp., San Diego Calif.). Each DNA was sequenced for verification and to detect any possible mutations introduced during the amplification process. Any deviation in sequence from the published consensus for each receptor subtype was corrected by site-directed mutagenesis.
(§4) The three α1-AR subtypes (a, b, d) were transfected into COS cells using a standard DEAE-dextran procedure with a chloroquine shock. In this procedure, each tissue culture dish (100 mm) was inoculated with 3.5×10^6 cells and transfected with 10 μg of DNA. Approximately 72 hours post-transfection, the cells were harvested and COS membranes were prepared. Transfected COS cells from 25 plates (100 mm) were scraped and suspended in 15 mL of TE buffer (50 mM Tris-HCl, 5 mM EDTA, pH 7.4). The suspension was disrupted with a homogenizer. It was then centrifuged at 1000× g for 10 minutes at 4° C. The supernatant was centrifuged at 34,500× g for 20 minutes at 4° C. The pellet was resuspended in 5 mL TNE buffer (50 mM Tris-HCl, 5 mM EDTA, 150 mM NaCl, pH 7.4). The resulting membrane preparation was aliquoted and stored at −70° C. The protein concentration was determined following membrane solubilization with TritonX-100.
(§5) The ability of each compound to bind to each of the α1-AR subtypes was assessed in a receptor binding assay. [125I]-HEAT, a non-selective α1-AR ligand, was used as the radiolabeled ligand. Each well of a 96-well plate received: 140 μL TNE, […] [125I]-HEAT diluted in TNE (50,000 cpm; final concentration 50 pM), 10 μL test compound diluted in DMSO (final concentration 1 pM-10 μM), […] COS cell membrane preparation expressing one of the three α1-AR subtypes (0.05-0.2 mg membrane protein). The plate was incubated for 1 hour at room temperature and the reaction mixtures were filtered through a Packard GF/C Unifilter filter plate. The filter plate was dried for 1 hour in a vacuum oven. Scintillation fluid ([…]) was added to each well, and the filter plate was counted in a Packard Topcount scintillation counter. Data was analyzed using GraphPad Prism software.
(§6) Tables A through D list the IC50 values expressed in nanomolar concentration for select compounds of the invention in all receptor subtypes.

α1d-AR = molecular target: T2, α1d-AR (Homo sapiens, UniProt P25100); experiment: as above; details: [125I]-HEAT 50 pM, 1 hour room temperature
T2 construct: expressed in transfected cells; host or cells: COS cells, pcDNA3 vector, transient DEAE-dextran transfection
T2 sequence (P25100 1-572): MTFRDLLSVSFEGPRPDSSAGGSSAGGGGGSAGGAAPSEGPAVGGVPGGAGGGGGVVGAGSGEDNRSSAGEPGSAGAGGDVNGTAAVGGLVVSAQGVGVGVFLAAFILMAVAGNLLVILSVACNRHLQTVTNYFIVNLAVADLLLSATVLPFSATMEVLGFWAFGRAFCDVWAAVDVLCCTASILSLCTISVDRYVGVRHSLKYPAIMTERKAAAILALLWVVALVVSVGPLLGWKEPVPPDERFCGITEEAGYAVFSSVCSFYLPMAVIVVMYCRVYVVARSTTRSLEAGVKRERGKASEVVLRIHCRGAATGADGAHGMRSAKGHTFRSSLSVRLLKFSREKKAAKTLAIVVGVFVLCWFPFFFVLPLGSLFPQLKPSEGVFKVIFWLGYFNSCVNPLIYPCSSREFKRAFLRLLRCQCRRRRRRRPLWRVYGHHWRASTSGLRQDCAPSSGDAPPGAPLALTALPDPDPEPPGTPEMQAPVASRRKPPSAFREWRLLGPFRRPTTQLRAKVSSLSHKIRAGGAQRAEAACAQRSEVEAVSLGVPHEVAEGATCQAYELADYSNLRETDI
Excerpt: as §2, §3, §4, §5, §6

rat aorta tissues = experiment: norepinephrine-induced contractile response of rat aortic rings; format: cell-based; details: norepinephrine-induced contraction, Long Evans rat aortic rings, 2 grams tension, 37° C.; read-out: IC50 of inhibition of contractile response in aortic tissue
Excerpt: as §1

Work on CC(C)Oc1ccccc1N1CCN(CCCNC(=O)c2ccc3c(c2)C(=O)N(c2cccc(F)c2)C3=O)CC1 [Compound 6] yielded a pIC50 (rat prostatic tissue) of 6.89, a pIC50 (α1b-AR) of 6.32 and a pIC50 (α1d-AR) of 7.66. The pIC50 (rat aorta tissues) was 5.55.

In the case of CC(C)Oc1ccccc1N1CCN(CC(O)CNC(=O)c2ccc3c(c2)C(=O)N(c2cccc(C(F)(F)F)c2)C3=O)CC1 (stereo not drawn) [Compound 57], the pIC50 (α1b-AR) was under 5.70 and the pIC50 (α1d-AR) was 7.05.

CC(C)Oc1ccccc1N1CCN(CC(O)CNC(=O)c2ccc3c(c2)C(=O)N(c2ccc(Cl)c(Cl)c2)C3=O)CC1 (stereo not drawn) [Compound 56] was tested, and the pIC50 (α1b-AR) was 5.91 and the pIC50 (α1d-AR) was 7.40.

In the case of CC(C)Oc1ccccc1N1CCN(CC(O)CNC(=O)c2ccc3c(c2)C(=O)N(c2ccc(C(C)(C)C)cc2)C3=O)CC1 (stereo not drawn) [Compound 41], the pIC50 (α1b-AR) was under 5.70 and the pIC50 (α1d-AR) was 7.12.

With COC(CNC(=O)c1ccc2c(c1)C(=O)N(c1cccc(F)c1)C2=O)CN1CCN(c2ccccc2OC(C)C)CC1 (stereo not drawn) [Compound 14] the pIC50 (α1b-AR) was under 5.70 and the pIC50 (α1d-AR) was 6.39.

Work on CC(C)Oc1ccccc1N1CCN(C[C@@H](O)CNC(=O)c2ccc3c(c2)C(=O)N(c2cccc(F)c2)C3=O)CC1 [Compound 9] yielded a pIC50 (rat prostatic tissue) of 6.64, a pIC50 (α1b-AR) of under 5.70 and a pIC50 (α1d-AR) of 6.72. The pIC50 (rat aorta tissues) was 5.19.

Work on COc1ccccc1N1C(=O)c2ccc(C(=O)NCC(O)CN3CCN(c4ccccc4OC(C)C)CC3)cc2C1=O (stereo not drawn) [Compound 26] yielded a pIC50 (α1b-AR) of 5.79 and a pIC50 (α1d-AR) of 7.13.

CC(=O)c1ccc(N2C(=O)c3ccc(C(=O)NCC(O)CN4CCN(c5ccccc5OC(C)C)CC4)cc3C2=O)cc1 (stereo not drawn) [Compound 48] gave a pIC50 (α1b-AR) of under 5.70 and a pIC50 (α1d-AR) of 7.22.

Compound CC(C)Oc1ccccc1N1CCN(CC(O)CNC(=O)c2ccc3c(c2)C(=O)N(c2cc(F)cc(F)c2)C3=O)CC1 (stereo not drawn) [Compound 29] has a pIC50 (α1b-AR) of 6.05 and a pIC50 (α1d-AR) of 7.42.

Work on CC(C)Oc1ccccc1N1CCN(CC(O)CNC(=O)c2ccc3c(c2)C(=O)N(c2ccc([N+](=O)[O-])cc2)C3=O)CC1 (stereo not drawn) [Compound 30] yielded a pIC50 (α1b-AR) of under 5.70 and a pIC50 (α1d-AR) of 7.42.

For Cc1ccc(N2C(=O)c3ccc(C(=O)NCC(O)CN4CCN(c5ccccc5OC(C)C)CC4)cc3C2=O)cc1 (stereo not drawn) [Compound 52], the pIC50 (α1b-AR) was under 5.70 and the pIC50 (α1d-AR) was 7.21.

With CC(C)Oc1ccccc1N1CCN(CC(O)CNC(=O)c2ccc3c(c2)C(=O)N(c2ccc(F)cc2)C3=O)CC1 (stereo not drawn) [Compound 50] the pIC50 (α1b-AR) was under 5.70 and the pIC50 (α1d-AR) was 6.95.

CC(C)Oc1ccccc1N1CCN(CC(O)CNC(=O)c2ccc3c(c2)C(=O)N(c2cccnc2)C3=O)CC1 (stereo not drawn) [Compound 11] gave a pIC50 (α1b-AR) of under 5.70 and a pIC50 (α1d-AR) of 7.51.

In the case of COc1ccc(N2C(=O)c3ccc(C(=O)NCC(O)CN4CCN(c5ccccc5OC(C)C)CC4)cc3C2=O)cc1OC (stereo not drawn) [Compound 38], the pIC50 (α1b-AR) was under 5.70 and the pIC50 (α1d-AR) was 6.76.

In the case of CC(C)Oc1ccccc1N1CCN(CC(O)CNC(=O)c2ccc3c(c2)C(=O)N(c2ccccc2)C3=O)CC1 (stereo not drawn) [Compound 51], the pIC50 (α1b-AR) was under 5.70 and the pIC50 (α1d-AR) was 7.19.

Cc1ccc(N2C(=O)c3ccc(C(=O)NCCCN4CCN(c5ccccc5OC(C)C)CC4)cc3C2=O)cc1 [Compound 46] was tested, and the pIC50 (α1b-AR) was under 5.70 and the pIC50 (α1d-AR) was 7.43.

For CC(C)Oc1ccccc1N1CCN(CC(O)CNC(=O)c2ccc3c(c2)C(=O)N(c2ccc(Cl)cc2)C3=O)CC1 (stereo not drawn) [Compound 53], the pIC50 (α1b-AR) was 6.22 and the pIC50 (α1d-AR) was 7.26.

CC(C)Oc1ccccc1N1CCN(CC(O)CNC(=O)c2ccc3c(c2)C(=O)N(c2ccc(O)cc2)C3=O)CC1 (stereo not drawn) [Compound 58] was tested, and the pIC50 (α1b-AR) was under 5.70 and the pIC50 (α1d-AR) was 7.55.

Compound Cc1ccc(N2C(=O)c3ccc(C(=O)NCC(O)CN4CCN(c5ccccc5OC(C)C)CC4)cc3C2=O)cc1C (stereo not drawn) [Compound 39] has a pIC50 (α1b-AR) of under 5.70 and a pIC50 (α1d-AR) of 7.14.

CC(C)Oc1ccccc1N1CCN(CCCNC(=O)c2ccc3c(c2)C(=O)N(c2ccc(N(C)C)cc2)C3=O)CC1 [Compound 44] showed a pIC50 (α1b-AR) of 6.33 and a pIC50 (α1d-AR) of 7.82.

In the case of CCOc1ccccc1N1CCN(CC(O)CNC(=O)c2ccc3c(c2)C(=O)N(c2cccc(F)c2)C3=O)CC1 (stereo not drawn) [Compound 42], the pIC50 (α1b-AR) was under 5.70 and the pIC50 (α1d-AR) was 6.87.

Compound Cc1cccc(N2C(=O)c3ccc(C(=O)NCC(O)CN4CCN(c5ccccc5OC(C)C)CC4)cc3C2=O)c1 (stereo not drawn) [Compound 49] has a pIC50 (α1b-AR) of under 5.70 and a pIC50 (α1d-AR) of 7.14.

Work on CC(C)Oc1ccccc1N1CCN(CC(O)CNC(=O)c2ccc3c(c2)C(=O)N(c2ccc(O)cc2)C3=O)CC1 (single isomer, unassigned) [Compound 35] yielded a pIC50 (α1b-AR) of under 5.70 and a pIC50 (α1d-AR) of 6.86.

With CC(C)Oc1ccccc1N1CCN(CC(O)CNC(=O)c2ccc3c(c2)C(=O)N(c2cccc(Cl)c2)C3=O)CC1 (stereo not drawn) [Compound 54] the pIC50 (α1b-AR) was 6.17 and the pIC50 (α1d-AR) was 7.43.

For CC(C)Oc1ccccc1N1CCN(CC(O)CNC(=O)c2ccc3c(c2)C(=O)N(c2ccc(N(C)C)cc2)C3=O)CC1 (stereo not drawn) [Compound 28], the pIC50 (α1b-AR) was under 5.70 and the pIC50 (α1d-AR) was 7.36.

CC(C)Oc1ccccc1N1CCN(C[C@H](O)CNC(=O)c2ccc3c(c2)C(=O)N(c2cccc(F)c2)C3=O)CC1 [Compound 27] gave a pIC50 (α1b-AR) of under 5.70 and a pIC50 (α1d-AR) of 7.20.

CC(C)Oc1ccccc1N1CCN(CCCNC(=O)c2ccc3c(c2)C(=O)N(c2ccc(O)cc2)C3=O)CC1 [Compound 47] gave a pIC50 (α1b-AR) of 6.59 and a pIC50 (α1d-AR) of 7.89.

Work on COc1ccccc1N1CCN(CC(O)CNC(=O)c2ccc3c(c2)C(=O)N(c2cccc(F)c2)C3=O)CC1 (stereo not drawn) [Compound 43] yielded a pIC50 (α1b-AR) of under 5.70 and a pIC50 (α1d-AR) of 6.27.
